pIC50: −log10 of the molar value.
Assays:
[1] = target: T1, Z-alpha-1-antitrypsin (Z-A1AT) (Homo sapiens, UniProt P01009, E366K/V237A); experiment: Inhibition of Z-alpha-1-antitrypsin polymerisation TR-FRET assay; format: biochemical; conditions: mean, 5 nM Z-A1AT, 72 hours at 37° C.
T1 construct: Z-alpha-1-antitrypsin was purified from human plasma; from tissue; host or cells: human plasma of ZZ homozygous donors
Excerpt: The potencies of the compounds of the invention for inhibition of Z-alpha-1-antitrypsin (Z-A1AT) polymerisation can be determined by a time-resolved fluorescence energy transfer (TR-FRET) assay performed on purified Z-A1AT as described herein. […] Mean activity data for the assay described below for compounds 1-4:
Inhibition of Z-Alpha-1-Antitrypsin Polymerisation Assay Protocol
Z-alpha-1-antitrypsin was purified from human plasma of donors homozygous for the Z-A1AT form. The purification was performed according to a published protocol (Lomas et al. Biochemistry 1993; 32:500-508) involving ammonium sulphate precipitation, thiol exchange fractionation, and anion exchange fractionation.
Purified Z-A1AT was diluted to 5 nM in PBS buffer with 0.01% Tween-20 and mixed with different concentrations of inhibitor compounds dissolved in DMSO, in 384-well assay plates. Following incubation for 72 hours at 37° C., the amount of Z-A1AT polymer was detected using a time-resolved fluorescence resonance energy transfer (TR-FRET) assay format, by adding an antibody detection mix to the assay plates. The detection mix contained an A1AT-polymer specific monoclonal antibody (Miranda et al. Hepatology 2010; 52: 1078-1088), Terbium-labelled anti-mouse antibody, a polyclonal rabbit anti-A1AT antibody, and an Alexa488-labelled anti-rabbit antibody. TR-FRET data were normalised to controls (DMSO vehicle control giving 0% inhibition, saturating concentrations of an active compound giving 100% inhibition), and IC50 values were derived by fitting 4-parameter logistic curves to the normalised data.
An antibody-based time-resolved fluorescence resonance energy transfer (TR-FRET) assay was used to monitor the polymerisation of 5 nM Z α1-antitrypsin following incubation with varying concentrations of compounds at 37° C. for 72 hours. This assay used the 2C1 monoclonal antibody that is specific to pathological polymers of α1-antitrypsin (Miranda et al. Hepatology 2010; 52: 1078-1088), a polyclonal antibody that binds to all forms of α1-antitrypsin, an anti-mouse IgG fluorescence donor (Eu-W1024) and an anti-rabbit IgG acceptor (APC).

[2] = Blood exposure after single PO administration in male CD-1 mouse; format: in vivo
Excerpt: Compound 1 had in vitro ADME properties suitable for in vivo evaluation of the pre-clinical and clinical pharmacology of the molecule.

M α1-antitrypsin = target: T2, M α1-antitrypsin (Homo sapiens, UniProt P01009); experiment: Compound association experiments (intrinsic tryptophan fluorescence), M α1-antitrypsin; format: binding
T2 construct: Alpha1-antitrypsin was purified from the plasma of ZZ and MM α1-antitrypsin homozygotes; from tissue; host or cells: plasma of MM homozygotes
T2 sequence (P01009 25-418): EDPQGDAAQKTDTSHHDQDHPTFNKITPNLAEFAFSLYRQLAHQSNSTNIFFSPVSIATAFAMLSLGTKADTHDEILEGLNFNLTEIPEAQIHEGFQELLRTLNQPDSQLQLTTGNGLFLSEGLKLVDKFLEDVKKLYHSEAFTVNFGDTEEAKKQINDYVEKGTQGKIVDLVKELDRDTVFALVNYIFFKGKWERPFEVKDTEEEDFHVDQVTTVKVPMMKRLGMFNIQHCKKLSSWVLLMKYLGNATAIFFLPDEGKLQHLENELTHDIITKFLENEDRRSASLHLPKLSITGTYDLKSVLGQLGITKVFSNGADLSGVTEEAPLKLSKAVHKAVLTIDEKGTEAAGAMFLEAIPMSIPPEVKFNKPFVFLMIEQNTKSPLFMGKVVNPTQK
Description: The intrinsic tryptophan fluorescence of α1-antitrypsin is dominated by Trp194 in the breach region (Tew et al. J Mol Biol. 2001 Nov. 9; 313(5):1161-9) and can be used to monitor the progress of compound binding. Plasma M and Z α1-antitrypsin were diluted to 0.2 mg/ml in 100 μM PBS, and Compound 1 (or an equivalent volume of DMSO) added to a concentration of 10 μM. Fluorescence (λex=280 nm, λem=330 nm) was monitored for at least 2 hours, and the half-time of change was calculated.
Kinetic data in stopped flow experiments were fitted to exponential decay curves with offset and linear slope, to account for a constant drift in the background, resulting in observed pseudo-first-order rate constants k(obs): y=A0·e^−k(obs)t+slope·t+offset where t=time and Ao=amplitude at t=0. The second-order on-rate was then obtained as the slope when plotting k(obs) values versus compound concentration. Off-rates were calculated from the on-rates and the KD values determined from the binding assays. Cell Biology

Z α1-antitrypsin = Z α1-antitrypsin (Homo sapiens, UniProt P01009, E366K/V237A); experiment: Intracellular Z α1-antitrypsin polymer formation in CHO-TET-ON-Z-A1AT cells (2C1 antibody); format: cell-based; design: expressed in transfected cells; host or cells: CHO Tet-On (CHO-K1) cells, doxycycline-induced
Z α1-antitrypsin, sequence (P01009 25-418 V237A/E366K): as the sequence (P01009 25-418) above, with V213A, E342K counted along it
Description: CHO Tet-On cells that conditionally express Z α1-antitrypsin (Ordóñez A et al. Hepatology 2013; 57(5):2049-60.) were simultaneously treated with 0.5 μg/mL […] and various concentrations of compounds for 48 hours in 6 well plates. Cells without doxycycline or treated with 1% v/v DMSO acted as controls. The cells were lysed and intracellular Z α1-antitrypsin polymer was evaluated by ELISA sandwich with the 2C1 monoclonal antibody (Miranda et al. Hepatology. 2010; 52:1078-88). Newly synthesised α1-antitrypsin was evaluated by growing cells induced to express Z α1-antitrypsin in DMEM without methionine (Met) and cysteine (Cys) for 1 h and then labelling with 1.3 MBq of ^35S-Met/Cys for 15 min. The cells were then rinsed and incubated in chase medium containing an excess of unlabeled Met and Cys for 0, 2 and 6 h. After the chase period, the medium was collected and cells were harvested. α1-Antitrypsin from the medium and cell lysates was immunoprecipitated with a polyclonal α1-antitrypsin antibody or the 2C1 monoclonal antibody that detects polymers by splitting each sample in two equal parts. Radiolabelled proteins were re-suspended in SDS loading buffer, boiled for 5 min, separated by 10% w/v acrylamide SDS-PAGE, and quantified by autoradiography.
CHO-K1 cells were incubated with/without doxycycline to express α1-antitrypsin and with or without the small molecule of interest, fixed with 3.7% v/v formaldehyde in PBS for 15 min, permeabilised with 0.1% v/v Triton X-100 in PBS and then blocked with 10% v/v FBS in PBS for 30 min. Cells were labelled with a rabbit polyclonal antibody to total α1-antitrypsin or the 2C1 monoclonal antibody that detects polymers followed by Texan red conjugated anti-rabbit or FITC labelled anti-mouse secondary antibodies respectively. Cells were imaged using an Axiovert 200 widefield fluorescence microscope (Carl Zeiss Microimaging Inc., Thornwood, NY).
Its ability to block Z α1-antitrypsin polymerisation in the ER during folding was assessed by adding Compound 1 to CHO-TET-ON-Z-A1AT cells (Ordóñez et al. Hepatology. 2013; 57(5):2049-60) with simultaneous induction of Z α1-antitrypsin expression using doxycycline. […] To investigate whether in addition to blocking polymerisation, Compound 1 was also able to increase secretion of Z α1-antitrypsin, Z α1-antitrypsin expression was induced in CHO-TET-ON-Z-A1AT cells, Compound 1 was added, and the total Z α1-antitrypsin in the supernatant was measured by immunoassay after 6 hours.

T1 sequence (P01009 25-418 V237A/E366K): as the sequence (P01009 25-418) above, with V213A, E342K counted along it

## CCC[C@@H](NC(=O)c1cccc2c1CC(=O)N2)[C@@H](O)c1cccc(F)c1C [Compound 1, N-[(1S,2R)-1-(3-fluoro-2-methylphenyl)-1-hydroxypentan-2-yl]-2-oxo-2,3-dihydro-1H-indole-4-carboxamide]
[1]
  pIC50: 8.30
[2]; single PO 10 mg/kg
  DNAUCinf: 202±101
  mean dose-normalised Cmax: 58±112
[2]; single PO 30 mg/kg
  DNAUCinf: 294±47
  mean dose-normalised Cmax: 113±27
[2]; single PO 100 mg/kg
  DNAUCinf: 403±246
  mean dose-normalised Cmax: 113±27
M α1-antitrypsin; calculated from on-rate and KD, read-out: first-order dissociation rate
  koff: 1.6e-05 s⁻¹
M α1-antitrypsin; read-out: second-order association rate
  kon: 210 M⁻¹ s⁻¹
Z α1-antitrypsin; 10 μM, CHO-TET-ON-Z-A1AT cells, tunicamycin experiment
  polymer formation in Z α1-antitrypsin expressing cells: completely abrogated
Z α1-antitrypsin; CHO-TET-ON-Z-A1AT cells, doxycycline induction, 2C1 antibody, read-out: pIC50, intracellular formation of Z α1-antitrypsin polymers (converted)
  IC50: 0.501 µM
Z α1-antitrypsin; CHO-TET-ON-Z-A1AT cells, in comparison with controls
  intracellular formation of Z α1-antitrypsin polymers: completely blocked
Z α1-antitrypsin; read-out: cellular activity at blocking Z α1-antitrypsin polymerisation (pEC50) (converted)
  EC50: 0.501 µM
